Assay results reported in patent US8455397B2, “Penoxsulam as a turfgrass, vineyard and orchard floor herbicide” (Dow AgroSciences, LLC, priority 2005, dated 2013).

Legend:
turfgrass = conditions: in vivo
dandelion (TAROF) [1] = test: Granule carrier comparison, pre-emergence greenhouse study; format: in vivo, Taraxacum officinale; conditions: pre-emergent greenhouse
Procedure: Greenhouse and field studies evaluated the effect of two granule carriers and two particles sizes on the postemergent broadleaf activity of penoxsulam. The two carriers were a 46-0-0 and 28-4-12 fertilizer blend and the particle sizes averaged 0.75 mm and 2.15 mm.
Greenhouse studies were applied both post and pre-emergence to broadleaf weeds and sedge reared from seed or nutlet in 12.7″ (32.25 cm) by 8.8″ (22.35 cm) flats of a loam soil. Particle size and carrier were evaluated post emergence, carrier comparisons with the smaller particle size of 0.75 was evaluated pre-emergence. Stage of growth of species at post emergence application: PLAMA and TAROF in the 3 to 5 leaf stage, TRFRE in the 3rd tri-foliate stage and CYPES in the 3 to 4 leaf stage. Post emergence trial design was a replicated block, one species per flat, 3 replicate flats per treatment. Granule treatments were uniformly applied to individual flats on an area basis using a common hand-shaker method. Post emergence applications were made to the flat covering both soil and misted foliage. Trial was sub-irrigated daily, and watered over the top 1 time per week starting 7 days after application to simulate a natural rainfall event. Active weed growth was maintained throughout the study period. Weed control of each species in the post emergence study was assessed at 2, 3 and 4 weeks after treatment. Pre-emergence trial design was 2 species per flat, 4 replicate flats, block design. Pre-emergence applications were made to the soil surface using a common hand shaker method on an area basis. Overhead irrigation was maintained throughout the trial. Weed control of each species in the pre-emergence study was assessed at 2, 3, 4 and 5 weeks after application. Control was determined visually by comparing treated and untreated flats and scored on a 0 to 100 percent scale where 0 corresponds to no control and 100 corresponds to complete kill.

[2] = tested on: buckhorn plantain (PLALA); test: Postemergent granule herbicides, turfgrass field studies; format: in vivo, Plantago lanceolata L.; conditions: Table I, 3 sites, Penoxsulam 140 gai/Ha, Scotts Plus 2 1682+841 gae/Ha, Trimec 1121+516+112 gae/Ha
Procedure: (§1) Field studies were conducted in established turfgrass sites containing a natural population of target broadleaf weeds. Replicated trials, containing a minimum of three replications and having individual plots ranging in size from 25 to 50 ft. sq (2.3 to 4.6 square meters), were initiated in the late spring when turf and weeds were actively growing. Granule treatments were uniformly applied to individual plots using a common hand-shaker method. Applications were made in the early morning when dew was present. Natural rainfall and supplemental irrigation were used to maintain healthy turf and active weed growth throughout the study period. Control of each weed species in the study site was made at 2, 4 and 8 weeks after treatment. Control was determined visually by comparing treated and untreated weeds and scored on a 0 to 100 percent scale where 0 corresponds to no control and 100 corresponds to complete kill.

[3] = tested on: Virginia buttonweed (DIQVI); test: as above; format: in vivo, Diodia virginiana L.; conditions: Table III, 1 site
Procedure: as §1

[4] = tested on: broadleaf weeds and sedges; test: Weed control in turfgrass and vine and orchard floors (general statement); format: in vivo; conditions: TRFRE, PLALA, TAROF, PLAMA, GLEHE, LESST, HYDSS, DIQVI, BELPE, CYPES
sun spurge (EPHHE) = test: Pre-emergence orchard floor weeds, greenhouse study; format: in vivo, Euphorbia helioscopia; conditions: 28 Days After Application
Procedure: (§2) Greenhouse studies were conducted by seeding species in a loam soil and applying the herbicides to the soil surface using a Cornwall 5 milliliter glass syringe fitted with a TeeJet TN-3 nozzle on an area basis Immediately following herbicide application the pots were irrigated over the top to move the herbicides into the seeding zone. Pots were kept well irrigated throughout the trial. A percent visual weed control assessment was taken 4 weeks after application. Control was determined visually by comparing treated and untreated pots and scored on a 0 to 100 percent scale where 0 corresponds to no control and 100 corresponds to complete kill, or no emergence.

redstem filaree (EROCI) = test: as above; format: in vivo, Erodivam cicutarium; conditions: 28 Days After Application
Procedure: as §2

common mallow (MALNE) = test: as above; format: in vivo, Malva neglecta; conditions: 28 Days After Application
Procedure: as §2

redroot pigweed (AMARE) = test: Pre-emergence weed nursery field study; format: in vivo, Amaranthus retroflexus; conditions: weed nursery in the field, 27 Days After Application
Procedure: Field studies were conducted in a non-fumigated weed nursery trial. Weed species were planted in single strips with a row planter at 36 centimeter spacing. Plot size was 3.05×9.2 meters, 4 replicate plots per treatment. Weed species were seeded at appropriate depths and later the same day pre-emergent applications were made to the soil surface. Liquid applications were made using a backpack sprayer calibrated to deliver 187 liters per hectare (L/ha). Applications were made in Fresno, Calif. in June. Sprinkler irrigation was applied at regular intervals throughout study period. Control of each weed species in the study site was made 4 weeks after treatment. Control was determined visually by comparing treated and untreated weeds and scored on a 0 to 100 percent scale where 0 corresponds to no control and 100 corresponds to complete kill or no emergence.

dandelion (TAROF) [5] = test: Postemergent granule herbicides, turfgrass field studies; format: in vivo, Taraxacum officinale
Procedure: as §1

SMILES: COc1cnc(OC)n2nc(NS(=O)(=O)c3c(OCC(F)F)cccc3C(F)(F)F)nc12 [Penoxsulam, 2-(2,2-difluoroethoxy)-N-(5,8-dimethoxy[1,2,4]triazolo[1,5-c]-pyrimidin-2-yl)-6-(trifluoromethyl)benzenesulfonamide]
- damage to mature, well-established turfgrass (turfgrass): acceptable or no damage
- Percent Weed Control 35 DAA (dandelion (TAROF) [1]; carrier 28-4-12, particle size 0.75 mm, 5.6 gai/Ha): 71%
- Percent Weed Control 35 DAA (dandelion (TAROF) [1]; carrier 28-4-12, particle size 0.75 mm, 11.2 gai/Ha): 96%
- Percent Weed Control 35 DAA (dandelion (TAROF) [1]; carrier 28-4-12, particle size 0.75 mm, 22.4 gai/Ha): 98%
- Percent Weed Control 35 DAA (dandelion (TAROF) [1]; carrier 46-0-0, particle size 0.75 mm, 5.6 gai/Ha): 77%
- Percent Weed Control 35 DAA (dandelion (TAROF) [1]; carrier 46-0-0, particle size 0.75 mm, 11.2 gai/Ha): 96%
- Percent Weed Control 35 DAA (dandelion (TAROF) [1]; carrier 46-0-0, particle size 0.75 mm, 22.4 gai/Ha): 96%
- Mean Percent Weed Control ([2]; 4 Weeks After Treatment): 53%
- Mean Percent Weed Control ([2]; 8 Weeks After Treatment): 62%
- Mean Percent Weed Control ([3]; 4 Weeks After Treatment, 22.4 gai/Ha): 67%
- Mean Percent Weed Control ([3]; 4 Weeks After Treatment, 44.9 gai/Ha): 76%
- Mean Percent Weed Control ([3]; 4 Weeks After Treatment, 67.3 gai/Ha): 93%
- Mean Percent Weed Control ([3]; 4 Weeks After Treatment, 100 gai/Ha): 92%
- Mean Percent Weed Control ([3]; 8 Weeks After Treatment, 22.4 gai/Ha): 48%
- Mean Percent Weed Control ([3]; 8 Weeks After Treatment, 44.9 gai/Ha): 63%
- Mean Percent Weed Control ([3]; 8 Weeks After Treatment, 67.3 gai/Ha): 87%
- Mean Percent Weed Control ([3]; 8 Weeks After Treatment, 100 gai/Ha): 78%
- effectiveness against most important weeds [4]: particularly effective
- Pre-emergent Percent Mean Control (sun spurge (EPHHE); 8.8 gai/Ha): 87%
- Pre-emergent Percent Mean Control (sun spurge (EPHHE); 17.5 gai/Ha): 97%
- Pre-emergent Percent Mean Control (sun spurge (EPHHE); 35 gai/Ha): 98%
- Pre-emergent Percent Mean Control (sun spurge (EPHHE); 70 gai/Ha): 100%
- Pre-emergent Percent Mean Control (redstem filaree (EROCI); 8.8 gai/Ha): 79%
- Pre-emergent Percent Mean Control (redstem filaree (EROCI); 17.5 gai/Ha): 97%
- Pre-emergent Percent Mean Control (redstem filaree (EROCI); 35 gai/Ha): 100%
- Pre-emergent Percent Mean Control (redstem filaree (EROCI); 70 gai/Ha): 100%
- Pre-emergent Percent Mean Control (common mallow (MALNE); 8.8 gai/Ha): 60%
- Pre-emergent Percent Mean Control (common mallow (MALNE); 17.5 gai/Ha): 92%
- Pre-emergent Percent Mean Control (common mallow (MALNE); 35 gai/Ha): 95%
- Pre-emergent Percent Mean Control (common mallow (MALNE); 70 gai/Ha): 98%
- Pre-emergent Percent Mean Control (redroot pigweed (AMARE); 8.8 gai/Ha): 100%
- Pre-emergent Percent Mean Control (redroot pigweed (AMARE); 17.5 gai/Ha): 100%
- Pre-emergent Percent Mean Control (redroot pigweed (AMARE); 35 gai/Ha): 100%
- Pre-emergent Percent Mean Control (redroot pigweed (AMARE); 70 gai/Ha): 100%
- Mean Percent Weed Control (dandelion (TAROF) [5]; Table I, 4 Weeks After Treatment, 5 sites, Penoxsulam 140 gai/Ha, Scotts Plus 2 1682+841 gae/Ha, Trimec 1121+516+112 gae/Ha): 93%
- Mean Percent Weed Control (dandelion (TAROF) [5]; Table I, 8 Weeks After Treatment, 5 sites, Penoxsulam 140 gai/Ha, Scotts Plus 2 1682+841 gae/Ha, Trimec 1121+516+112 gae/Ha): 87%
- Mean Percent Weed Control (dandelion (TAROF) [5]; Table III, 4 Weeks After Treatment, 22.4 gai/Ha, 6 sites): 45%
- Mean Percent Weed Control (dandelion (TAROF) [5]; Table III, 4 Weeks After Treatment, 44.9 gai/Ha, 6 sites): 61%
- Mean Percent Weed Control (dandelion (TAROF) [5]; Table III, 4 Weeks After Treatment, 67.3 gai/Ha, 6 sites): 61%
- Mean Percent Weed Control (dandelion (TAROF) [5]; Table III, 4 Weeks After Treatment, 100 gai/Ha, 6 sites): 69%
- Mean Percent Weed Control (dandelion (TAROF) [5]; Table III, 8 Weeks After Treatment, 22.4 gai/Ha, 6 sites): 25%
- Mean Percent Weed Control (dandelion (TAROF) [5]; Table III, 8 Weeks After Treatment, 44.9 gai/Ha, 6 sites): 45%
- Mean Percent Weed Control (dandelion (TAROF) [5]; Table III, 8 Weeks After Treatment, 67.3 gai/Ha, 6 sites): 47%
- Mean Percent Weed Control (dandelion (TAROF) [5]; Table III, 8 Weeks After Treatment, 100 gai/Ha, 6 sites): 57%
